Laboratory results taken from US9241917B2, “Facially amphiphilic polymers and oligomers and uses thereof” (priority 2003, dated 2016).
In brackets after ≈: the same amount, converted by molar mass. Each block holds one compound with its values, some of them ahead of it.

Experiments:
[1] = test system: low molecular weight heparin (LMWH, Innohep); assay: Clotting time of activated plasma in the presence of LMWH; format: biochemical; conditions: for Clotting time of activated plasma: LMWH 4.6 ug/ml
Heparin = assay: Clotting time of activated plasma in the presence of heparin; format: biochemical; design: unit not given here; conditions: heparin 1 unit, 0.2 ug/ml
human erythrocytes = assay: Hemolysis of human erythrocytes; format: cell-based
Experimental: For example, cytotoxic selectivity can be assessed by determining the hemolytic activity of the polymer or oligomer. Hemolytic activity assays are performed by measuring the degree of hemolysis of human erythrocytes following incubation in the presence of the polymer or oligomer and determining HC50 values. […] See also Javadpour, M. M., et al., J. Med. Chem. 39:3107-3113 (1996).
The toxicity to mammalian cells of polymers and oligomers of the present invention was evaluated using human blood obtained from healthy volunteers, anticoagulated with 0.1 volume of sodium citrate. The general procedure is as follows: Washed erythrocytes are suspended in either HEPES buffer, pH 7.4, containing 1 mM Mg2^+ and 1 mM Ca2^+ or in heated and unheated autologous serum obtained from clotted blood. Red cell agglutination is evaluated microscopically and red cell lysis is evaluated by measuring the amount of released hemoglobin spectroscopically. The effect of polymers on platelet function is studied by adding increasing concentrations of polymer to citrate-anticoagulated platelet-rich plasma. Platelet aggregation and secretion are then evaluated in a lumi-aggregometer (Chrono-Log).
One distinction is that the studies with Pmx10073 were done in whole blood. […] The concentrations of compound that are cytotoxic for mammalian cells were determined and compared to efficacious concentrations. […]

[2] = test system: Candida albicans ATCC 10231; assay: Antifungal growth assay (MIC100), Candida albicans; format: cell-based; conditions: ATCC10231, 20 h
Experimental: (§1) Several different genera of fungi were tested for their sensitivity to a set of salicylamide and arylamide oligomers. Both non-filamentous (yeast) and filamentous fungi were tested and specific fungi that are associated with various types of human infections were chosen for the screen (Table 4). […] All growth assays were done in a total of 1 ml volumes and growth was assessed by turbidity measurements. Other assay conditions are described in Table 6.

[3] = test system: Aspergillus fumigatus ATCC 1028; assay: Antifungal growth assay (MIC100), Aspergillus fumigatus; format: cell-based; conditions: ATCC1028, 48 h, complete inhibition of growth, 2 days, 28° C.
Experimental: as §1

[4] = test system: Cryptococcus neoformans ATCC 24067; assay: Antifungal growth assay (MIC100), Cryptococcus neoformans; format: cell-based; conditions: ATCC24067, 48 h, complete inhibition of growth, 2 days, 37° C.
Experimental: as §1

[5] = test system: Trichophyton mentagrophytes ATCC 9533; assay: Antifungal growth assay (MIC100), Trichophyton mentagrophytes; format: cell-based; conditions: ATCC9533, 72 h, complete inhibition of growth, 3 days, 28° C.
Experimental: as §1

[6] = test system: Trichophyton rubrum ATCC 10218; assay: Antifungal growth assay (MIC100), Trichophyton rubrum; format: cell-based; conditions: ATCC10218, 72 h, complete inhibition of growth, 3 days, 28° C.
Experimental: as §1

E. coli (ATCC25922) = assay: Growth assay (MIC100), E. coli control organism; format: cell-based; conditions: Escherichia coli, ATCC25922, 20 h
Experimental: as §1

E. coli = assay: Antimicrobial assay, minimal inhibitory concentration against E. coli

SMILES: CC(C)CCOc1cc(OCCC(C)C)c(C(=O)NNC(=O)c2cc(C(=O)NCCN(C)C)c(OCCCCCN)cc2OCCCCCN)cc1C(=O)NNC(=O)c1cc(C(=O)NCCN(C)C)c(OCCCCCN)cc1OCCCCCN [Compound 19]
Antagonism of the delay in plasma clotting caused by LMWH, in words ([1]; oligomer 4.4 ug/ml, LMWH (Innohep) 4.6 ug/ml final concentration): significantly antagonized the delay in plasma clotting

SMILES: CC(C)CCOc1cc(OCCC(C)C)c(C(=O)NNC(=O)c2cc(C(=O)NCCN(C)C)c(OCCCCCN)cc2OCCCCCN)cc1C(=O)NNC(=O)c1cc(C(=O)NCCN(C)C)c(OCCCCCN)cc1OCCCCCN [#19]
Clotting time, Average (Heparin; oligomer 0.4 ug/ml): >400 | Clotting time, Trial #1 (Heparin; oligomer 0.4 ug/ml): >400 | Clotting time, Average (Heparin; oligomer 1.5 ug/ml): 40.2 | Clotting time, Trial #1 (Heparin; oligomer 1.5 ug/ml): 43.2 | Clotting time, Trial #2 (Heparin; oligomer 1.5 ug/ml): 37.1 | Clotting time, Average (Heparin; oligomer 4.4 ug/ml): 27.9 | Clotting time, Trial #1 (Heparin; oligomer 4.4 ug/ml): 29.0 | Clotting time, Trial #2 (Heparin; oligomer 4.4 ug/ml): 26.7 | Clotting time of activated plasma ([1]; oligomer 0.4 ug/ml): 64.2 | Clotting time of activated plasma ([1]; oligomer 1.5 ug/ml): 232.8 | Clotting time of activated plasma ([1]; oligomer 14.8 ug/ml): 34

SMILES: CC(C)CC(N)C(=O)Nc1cc(C(C)(C)C)cc(NC(=O)c2cccc(C(=O)Nc3cc(C(C)(C)C)cc(NC(=O)C(N)CC(C)C)c3SCCN)c2)c1SCCN (stereo not drawn) [#13]
Clotting time, Average (Heparin; oligomer 4.4 ug/ml): 92.4 | Clotting time, Trial #1 (Heparin; oligomer 4.4 ug/ml): 81.2 | Clotting time, Trial #2 (Heparin; oligomer 4.4 ug/ml): 88.2 | Clotting time, Trial #3 (Heparin; oligomer 4.4 ug/ml): 94.1 | Clotting time, Trial #4 (Heparin; oligomer 4.4 ug/ml): 106.2 | Clotting time of activated plasma ([1]; oligomer 14.8 ug/ml): 189.2

SMILES: CC(C)(C)c1cc2c(OCC(=O)NCCCCCN)c(c1)Cc1cc(C(C)(C)C)cc(c1OCC(=O)NCCCCCN)Cc1cc(C(C)(C)C)cc(c1OCC(=O)NCCCCCN)Cc1cc(C(C)(C)C)cc(c1OCC(=O)NCCCCCN)C2 [#18]
Clotting time, Average (Heparin; oligomer 4.4 ug/ml): 57.6 | Clotting time, Trial #1 (Heparin; oligomer 4.4 ug/ml): 57.6 | Clotting time of activated plasma ([1]; oligomer 0.4 ug/ml): 140.1 | Clotting time of activated plasma ([1]; oligomer 14.8 ug/ml): 48.6

SMILES: CC(C)(C)c1cc(NC(=O)c2cc(OCCN)cc(C(=O)Nc3cc(C(C)(C)C)cc(NC(=O)[C@H](N)CCCNC(=N)N)c3SCCN)c2)c(SCCN)c(NC(=O)[C@H](N)CCCNC(=N)N)c1 [Compound 12]
Concentration lysing red cells (no lysis up to) (human erythrocytes): > 800 µM

MIC [2]: 0.1 µg/mL (≈ 0.108 µM) | MIC [3]: 1 µg/mL (≈ 1.08 µM) | MIC [4]: 0.1 µg/mL (≈ 0.108 µM) | MIC [5]: 0.3 µg/mL (≈ 0.325 µM) | MIC [6]: 1 µg/mL (≈ 1.08 µM) | MIC (E. coli (ATCC25922)): 3 µg/mL (≈ 3.25 µM)
SMILES: C[C@@H]1[C@H](O)[C@@H](C)/C=C/C=C/C=C/C=C/C=C/C=C/C=C/[C@H](O[C@@H]2O[C@H](C)[C@@H](O)[C@H](N)[C@@H]2O)C[C@@H]2O[C@](O)(C[C@@H](O)C[C@@H](O)[C@H](O)CC[C@@H](O)C[C@@H](O)CC(=O)O[C@H]1C)C[C@H](O)[C@H]2C(=O)O [Amphotericin]

MIC (E. coli; Escherichia coli, read-out: MIC E. coli): 6 µg/mL (≈ 6.51 µM)
SMILES: CC(C)(C)c1cc(NC(=O)c2cccc(C(=O)Nc3cc(C(C)(C)C)cc(NC(=O)[C@@H](N)CCCNC(=N)N)c3SCCN)c2)c(SCCN)c(NC(=O)[C@@H](N)CCCNC(=N)N)c1 [Compound 6]
HC50 RBC (human erythrocytes; Table 1, arylamide series, one hour incubation, 50% hemoglobin release): 715 µg/mL | Antimicrobial activity against E. coli, in words (E. coli; text on Tables 1 and 2): highly potent and selective

SMILES: CC(C)CC(NC(=O)c1cc(NC(=O)C(CC(C)C)NC(=O)c2cc(NC(=O)C(CC(C)C)NC(=O)c3cc(NC(=O)C(CC(C)C)NC(=O)c4cc(NC(=O)C(CC(C)C)NC(=O)c5cc(N)ccc5OCCNC(=N)N)ccc4OCCNC(=N)N)ccc3OCCNC(=N)N)ccc2OCCNC(=N)N)ccc1OCCNC(=N)N)C(N)=O (stereo not drawn) [#10]
Clotting time, Average (Heparin; oligomer 4.4 ug/ml): >400 | Clotting time, Trial #1 (Heparin; oligomer 4.4 ug/ml): 113.8 | Clotting time, Trial #2 (Heparin; oligomer 4.4 ug/ml): 317.6 | Clotting time, Trial #3 (Heparin; oligomer 4.4 ug/ml): >450 | Clotting time, Trial #4 (Heparin; oligomer 4.4 ug/ml): >450 | Clotting time, Average (Heparin; oligomer 44.4 ug/ml): 38.7 | Clotting time, Trial #1 (Heparin; oligomer 44.4 ug/ml): 40.7 | Clotting time, Trial #2 (Heparin; oligomer 44.4 ug/ml): 35.6 | Clotting time, Trial #3 (Heparin; oligomer 44.4 ug/ml): 36.7 | Clotting time, Trial #4 (Heparin; oligomer 44.4 ug/ml): 33.7 | Clotting time of activated plasma ([1]; oligomer 14.8 ug/ml): 97.6

SMILES: COc1ccc(NC(=O)C(CCCNC(=N)N)NC(=O)c2cc(NC(=O)C(CCCNC(=N)N)NC(=O)c3cc(NC(=O)C(CCCNC(=N)N)NC(=O)c4cc(NC(=O)C(CCCNC(=N)N)NC(=O)c5cc(N)ccc5OC)ccc4OC)ccc3OC)ccc2OC)cc1C(=O)NC(CCCNC(=N)N)C(N)=O (stereo not drawn) [#3]
Clotting time, Average (Heparin; oligomer 4.4 ug/ml): 80.3 | Clotting time, Trial #1 (Heparin; oligomer 4.4 ug/ml): 72.2 | Clotting time, Trial #2 (Heparin; oligomer 4.4 ug/ml): 75.1 | Clotting time, Trial #3 (Heparin; oligomer 4.4 ug/ml): 81.2 | Clotting time, Trial #4 (Heparin; oligomer 4.4 ug/ml): 92.6 | Clotting time, Average (Heparin; oligomer 44.4 ug/ml): 36.8 | Clotting time, Trial #1 (Heparin; oligomer 44.4 ug/ml): 38.7 | Clotting time, Trial #2 (Heparin; oligomer 44.4 ug/ml): 34.1 | Clotting time, Trial #3 (Heparin; oligomer 44.4 ug/ml): 38.6 | Clotting time, Trial #4 (Heparin; oligomer 44.4 ug/ml): 35.6 | Clotting time of activated plasma ([1]; oligomer 14.8 ug/ml): 109.2

SMILES: CC(C)CCOc1ccc(NC(=O)C(CCCNC(=N)N)NC(=O)c2cc(NC(=O)C(CCCNC(=N)N)NC(=O)c3cc(NC(=O)C(CCCNC(=N)N)NC(=O)c4cc(NC(=O)C(CCCNC(=N)N)NC(=O)c5cc(N)ccc5OCCC(C)C)ccc4OCCC(C)C)ccc3OCCC(C)C)ccc2OCCC(C)C)cc1C(=O)NC(CCCNC(=N)N)C(N)=O (stereo not drawn) [#4]
Clotting time, Average (Heparin; oligomer 4.4 ug/ml): 169.8 | Clotting time, Trial #1 (Heparin; oligomer 4.4 ug/ml): 175.5 | Clotting time, Trial #2 (Heparin; oligomer 4.4 ug/ml): 153.8 | Clotting time, Trial #3 (Heparin; oligomer 4.4 ug/ml): 157.1 | Clotting time, Trial #4 (Heparin; oligomer 4.4 ug/ml): 192.6 | Clotting time, Average (Heparin; oligomer 44.4 ug/ml): 29.2 | Clotting time, Trial #1 (Heparin; oligomer 44.4 ug/ml): 31.6 | Clotting time, Trial #2 (Heparin; oligomer 44.4 ug/ml): 29.6 | Clotting time, Trial #3 (Heparin; oligomer 44.4 ug/ml): 29.6 | Clotting time, Trial #4 (Heparin; oligomer 44.4 ug/ml): 26.1 | Clotting time of activated plasma ([1]; oligomer 0.4 ug/ml): 137.7 | Clotting time of activated plasma ([1]; oligomer 14.8 ug/ml): 44.9
